Source: ChEMBL document CHEMBL3352542, “Synthesis, biological evaluation and molecular modeling study of 2-(1,3,4-thiadiazolyl-thio and 4-methyl-thiazolyl-thio)-quinazolin-4-ones as a new class of DHFR inhibitors” (Bioorg Med Chem Lett, 2014)
Calls of active or inactive are those of the source. The rule behind the calls is not given here.

Experiments:
Bacillus subtilis [1] = experiment: Antimicrobial activity against Bacillus subtilis assessed as inhibition zone at 200 ug/disk after 24 hrs by disc-diffusion method; format: functional; details: read-out: IZ
Escherichia coli [2] = experiment: Antimicrobial activity against Escherichia coli assessed as inhibition zone at 200 ug/disk after 24 hrs by disc-diffusion method; format: functional; details: read-out: IZ
Escherichia coli [3] = experiment: Antimicrobial activity against Escherichia coli assessed as inhibition of visible growth after 24 hrs by disc-diffusion method; format: functional, organism-based
CAKI-1 = experiment: Growth inhibition of human CAKI-1 cells at 10 uM after 48 hrs; format: functional
786-0 = experiment: Growth inhibition of human 786-0 cells at 10 uM after 48 hrs; format: functional
RXF 393 = experiment: Growth inhibition of human RXF393 cells at 10 uM after 48 hrs; format: functional
Staphylococcus aureus [4] = experiment: Antimicrobial activity against Staphylococcus aureus assessed as inhibition of visible growth after 24 hrs by disc-diffusion method; format: functional, organism-based
SNB-19 = experiment: Growth inhibition of human SNB19 cells at 10 uM after 48 hrs; format: functional
HOP-62 = experiment: Growth inhibition of human HOP62 cells at 10 uM after 48 hrs; format: functional
SR = experiment: Growth inhibition of human SR cells at 10 uM after 48 hrs; format: functional
OVCAR-4 = experiment: Growth inhibition of human OVCAR4 cells at 10 uM after 48 hrs; format: functional
MCF7 = experiment: Growth inhibition of human MCF7 cells at 10 uM after 48 hrs; format: functional
SK-MEL-5 = experiment: Growth inhibition of human SK-MEL-5 cells at 10 uM after 48 hrs; format: functional
UACC-62 = experiment: Growth inhibition of human UACC62 cells at 10 uM after 48 hrs; format: functional
MDA-MB-231 = experiment: Growth inhibition of human MDA-MB-231 cells at 10 uM after 48 hrs; format: functional
Staphylococcus aureus [5] = experiment: Antimicrobial activity against Staphylococcus aureus assessed as inhibition zone at 200 ug/disk after 24 hrs by disc-diffusion method; format: functional; details: read-out: IZ
NCI-H522 = experiment: Growth inhibition of human NCI-H522 cells at 10 uM after 48 hrs; format: functional
MDA-MB-468 = experiment: Growth inhibition of human MDA-MB-468 cells at 10 uM after 48 hrs; format: functional
UACC-257 = experiment: Growth inhibition of human UACC257 cells at 10 uM after 48 hrs; format: functional
MDA-MB-435 = experiment: Growth inhibition of human MDA-MB-435 cells at 10 uM after 48 hrs; format: functional
Pseudomonas aeruginosa = experiment: Antimicrobial activity against Pseudomonas aeruginosa assessed as inhibition zone at 200 ug/disk after 24 hrs by disc-diffusion method; format: functional; details: read-out: IZ
SF-295 = experiment: (§1) Growth inhibition of human SF295 cells at 10 uM after 48 hrs; format: functional
CCRF-CEM = experiment: Growth inhibition of human CCRF-CEM cells at 10 uM after 48 hrs; format: functional
RPMI-8226 = experiment: Growth inhibition of human RPMI8226 cells at 10 uM after 48 hrs; format: functional
Candida albicans = experiment: Antimicrobial activity against Candida albicans assessed as inhibition zone at 200 ug/disk after 24 hrs by disc-diffusion method; format: functional; details: read-out: IZ
HOP-92 = experiment: (§2) Growth inhibition of human HOP92 cells at 10 uM after 48 hrs; format: functional
HCT-116 = experiment: Growth inhibition of human HCT116 cells at 10 uM after 48 hrs; format: functional
Malme-3M = experiment: Growth inhibition of human MALME-3M cells at 10 uM after 48 hrs; format: functional
Hs-578T = experiment: (§3) Growth inhibition of human Hs 578T cells at 10 uM after 48 hrs; format: functional
A498 = experiment: Growth inhibition of human A498 cells at 10 uM after 48 hrs; format: functional
Bacillus subtilis [6] = experiment: Antimicrobial activity against Bacillus subtilis assessed as inhibition of visible growth after 24 hrs by disc-diffusion method; format: functional, organism-based
SK-MEL-28 = experiment: Growth inhibition of human SK-MEL-28 cells at 10 uM after 48 hrs; format: functional, cell-based
SF-539 = experiment: Growth inhibition of human SF539 cells at 10 uM after 48 hrs; format: functional
HT-29 = experiment: Growth inhibition of human HT-29 cells at 10 uM after 48 hrs; format: functional
KM12 = experiment: Growth inhibition of human KM12 cells at 10 uM after 48 hrs; format: functional
U-251 = experiment: Growth inhibition of human U251 cells at 10 uM after 48 hrs; format: functional
NCI-H226 = experiment: Growth inhibition of human NCI-H226 cells at 10 uM after 48 hrs; format: functional
T47D = experiment: Growth inhibition of human T47D cells at 10 uM after 48 hrs; format: functional
PC-3 = experiment: (§4) Growth inhibition of human PC3 cells at 10 uM after 48 hrs; format: functional
HL-60(TB) = experiment: Growth inhibition of human HL-60(TB) cells at 10 uM after 48 hrs; format: functional
K562 = experiment: Growth inhibition of human K562 cells at 10 uM after 48 hrs; format: functional
HCT-15 = experiment: Growth inhibition of human HCT15 cells at 10 uM after 48 hrs; format: functional
MOLT-4 = experiment: Growth inhibition of human MOLT4 cells at 10 uM after 48 hrs; format: functional
A549 = experiment: Growth inhibition of human A549 cells at 10 uM after 48 hrs; format: functional
Dihydrofolate reductase = target: T1, Dihydrofolate reductase (Bos taurus, UniProt P00376); experiment: Inhibition of bovine liver DHFR
T1 sequence (P00376 whole entry): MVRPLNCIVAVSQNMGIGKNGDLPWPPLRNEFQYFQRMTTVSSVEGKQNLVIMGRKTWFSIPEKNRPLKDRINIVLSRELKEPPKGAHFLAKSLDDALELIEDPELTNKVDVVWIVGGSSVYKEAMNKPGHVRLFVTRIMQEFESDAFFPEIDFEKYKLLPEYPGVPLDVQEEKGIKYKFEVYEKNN

UO-31 = experiment: (§5) Growth inhibition of human UO31 cells at 10 uM after 48 hrs; format: functional
[7] = as §1; format: functional; details: SF-295, 48 h, read-out: GI
[8] = as §2; format: functional; details: HOP-92, 48 h, read-out: GI
[9] = as §3; format: functional; details: read-out: GI
[10] = as §4; format: functional; details: PC-3, 48 h, read-out: GI
[11] = as §5; format: functional; details: UO-31, 48 h, read-out: GI

With `Cc1ccc2nc(Sc3nnc(N)s3)n(-c3ccc(Cl)cc3)c(=O)c2c1` the zone of inhibition at 200 µg/disc (Bacillus subtilis [1]) was 26 mm, the zone of inhibition at 200 µg/disc (Escherichia coli [2]) was 18 mm and the Activity (Escherichia coli [3]) was “Active”. For the same compound, the “growth inhibition (GI)” value (CAKI-1) was “inactive”, the “growth inhibition (GI)” value (786-0) was “inactive” and the “growth inhibition (GI)” value (RXF 393) was “inactive”. For the same compound, the Activity (Staphylococcus aureus [4]) was “Active”, the “growth inhibition (GI)” value (SNB-19) was “inactive” and the “growth inhibition (GI)” value (HOP-62) was “inactive”. The “growth inhibition (GI)” value (SR) was “inactive”, the “growth inhibition (GI)” value (OVCAR-4) was “inactive” and the “growth inhibition (GI)” value (MCF7) was “inactive”. For the same compound, the “growth inhibition (GI)” value (SK-MEL-5) was “inactive”, the “growth inhibition (GI)” value (UACC-62) was “inactive” and the “growth inhibition (GI)” value (MDA-MB-231) was “inactive”. For the same compound, the zone of inhibition at 200 µg/disc (Staphylococcus aureus [5]) was 24 mm, the “growth inhibition (GI)” value (NCI-H522) was “inactive” and the “growth inhibition (GI)” value (MDA-MB-468) was “inactive”. The “growth inhibition (GI)” value (UACC-257) was “inactive”, the “growth inhibition (GI)” value (MDA-MB-435) was “inactive” and the zone of inhibition at 200 µg/disc (Pseudomonas aeruginosa) was 12 mm. For the same compound, the “growth inhibition (GI)” value (SF-295) was “inactive”, the “growth inhibition (GI)” value (CCRF-CEM) was “inactive” and the “growth inhibition (GI)” value (RPMI-8226) was “inactive”. The zone of inhibition at 200 µg/disc (Candida albicans) was 8 mm, the “growth inhibition (GI)” value (HOP-92) was “inactive” and the “growth inhibition (GI)” value (HCT-116) was “inactive”. For the same compound, the “growth inhibition (GI)” value (Malme-3M) was “inactive”, the “growth inhibition (GI)” value (Hs-578T) was “inactive” and the “growth inhibition (GI)” value (A498) was “inactive”. The Activity (Bacillus subtilis [6]) was “Active”, the “growth inhibition (GI)” value (SK-MEL-28) was “inactive” and the “growth inhibition (GI)” value (SF-539) was “inactive”. For the same compound, the “growth inhibition (GI)” value (HT-29) was “inactive”, the “growth inhibition (GI)” value (KM12) was “inactive” and the “growth inhibition (GI)” value (U-251) was “inactive”. The “growth inhibition (GI)” value (NCI-H226) was “inactive”, the “growth inhibition (GI)” value (T47D) was “inactive” and the “growth inhibition (GI)” value (PC-3) was “inactive”. The “growth inhibition (GI)” value (HL-60(TB)) was “inactive”, the “growth inhibition (GI)” value (K562) was “inactive” and the “growth inhibition (GI)” value (HCT-15) was “inactive”. For the same compound, the “growth inhibition (GI)” value (MOLT-4) was “inactive”, the “growth inhibition (GI)” value (A549) was “inactive” and the IC50 (Dihydrofolate reductase) was 0.7 µM. For the same compound, the “growth inhibition (GI)” value (UO-31) was “inactive”.

For `COc1cc2nc(Sc3nnc(N)s3)n(-c3ccc(C)cc3)c(=O)c2cc1OC`, the zone of inhibition at 200 µg/disc (Bacillus subtilis [1]) was 15 mm, the zone of inhibition at 200 µg/disc (Escherichia coli [2]) was 8 mm and the “growth inhibition (GI)” value (CAKI-1) was “inactive”. The “growth inhibition (GI)” value (786-0) was “inactive”, the “growth inhibition (GI)” value (RXF 393) was “inactive” and the “growth inhibition (GI)” value (SNB-19) was “inactive”. The “growth inhibition (GI)” value (HOP-62) was “inactive”, the “growth inhibition (GI)” value (SR) was “inactive” and the “growth inhibition (GI)” value (OVCAR-4) was “inactive”. For the same compound, the “growth inhibition (GI)” value (MCF7) was “inactive”, the “growth inhibition (GI)” value (SK-MEL-5) was “inactive” and the “growth inhibition (GI)” value (UACC-62) was “inactive”. For the same compound, the “growth inhibition (GI)” value (MDA-MB-231) was “inactive”, the zone of inhibition at 200 µg/disc (Staphylococcus aureus [5]) was 14 mm and the “growth inhibition (GI)” value (NCI-H522) was “inactive”. The “growth inhibition (GI)” value (MDA-MB-468) was “inactive”, the “growth inhibition (GI)” value (UACC-257) was “inactive” and the “growth inhibition (GI)” value (MDA-MB-435) was “inactive”. The zone of inhibition at 200 µg/disc (Pseudomonas aeruginosa) was 8 mm, the “growth inhibition (GI)” value (SF-295) was “inactive” and the “growth inhibition (GI)” value (CCRF-CEM) was “inactive”. For the same compound, the “growth inhibition (GI)” value (RPMI-8226) was “inactive”, the zone of inhibition at 200 µg/disc (Candida albicans) was 8 mm and the “growth inhibition (GI)” value (HOP-92) was “inactive”. For the same compound, the “growth inhibition (GI)” value (HCT-116) was “inactive”, the “growth inhibition (GI)” value (Malme-3M) was “inactive” and the “growth inhibition (GI)” value (Hs-578T) was “inactive”. The “growth inhibition (GI)” value (A498) was “inactive”, the “growth inhibition (GI)” value (SK-MEL-28) was “inactive” and the “growth inhibition (GI)” value (SF-539) was “inactive”. The “growth inhibition (GI)” value (HT-29) was “inactive”, the “growth inhibition (GI)” value (KM12) was “inactive” and the “growth inhibition (GI)” value (U-251) was “inactive”. The “growth inhibition (GI)” value (NCI-H226) was “inactive”, the “growth inhibition (GI)” value (T47D) was “inactive” and the “growth inhibition (GI)” value (PC-3) was “inactive”. The “growth inhibition (GI)” value (HL-60(TB)) was “inactive”, the “growth inhibition (GI)” value (K562) was “inactive” and the “growth inhibition (GI)” value (HCT-15) was “inactive”. For the same compound, the “growth inhibition (GI)” value (MOLT-4) was “inactive”, the “growth inhibition (GI)” value (A549) was “inactive” and the IC50 (Dihydrofolate reductase) was 1 µM. The “growth inhibition (GI)” value (UO-31) was “inactive”.

For `COc1cc2nc(Sc3nnc(N)s3)n(-c3ccc(Cl)cc3)c(=O)c2cc1OC`, the zone of inhibition at 200 µg/disc (Bacillus subtilis [1]) was 8 mm, the zone of inhibition at 200 µg/disc (Escherichia coli [2]) was 8 mm and the inhibition of growth at 10 µM (CAKI-1; CAKI-1, 48 h, read-out: GI) was 12.6%. It also gave an inhibition of growth at 10 µM (SNB-19; SNB-19, 48 h, read-out: GI) of 11.9%, an inhibition of growth at 10 µM (SR; read-out: GI) of 14.4% and a zone of inhibition at 200 µg/disc (Staphylococcus aureus [5]) of 8 mm. The zone of inhibition at 200 µg/disc (Pseudomonas aeruginosa) was 8 mm, the inhibition of growth at 10 µM [7] was 12.1% and the zone of inhibition at 200 µg/disc (Candida albicans) was 8 mm. It also gave an inhibition of growth at 10 µM [8] of 40.9%, an inhibition of growth at 10 µM (Malme-3M; read-out: GI) of 12.4% and an inhibition of growth at 10 µM [9] of 10.9%. The inhibition of growth at 10 µM (A498; A498, 48 h, read-out: GI) was 18.8%, the inhibition of growth at 10 µM (U-251; U-251, 48 h, read-out: GI) was 11.5% and the inhibition of growth at 10 µM (T47D; read-out: GI) was 13.7%. It also gave an inhibition of growth at 10 µM [10] of 11.2%, an inhibition of growth at 10 µM (HL-60(TB); HL-60, 48 h, read-out: GI) of 31.5% and an inhibition of growth at 10 µM (K562; K562, 48 h, read-out: GI) of 15.3%. The IC50 (Dihydrofolate reductase) was 6 µM and the inhibition of growth at 10 µM [11] was 23.6%.
